US11530207B2, “Compounds for the treatment of cancer” (SKYHAWK THERAPEUTICS, INC., priority 2018, dated 2022)

These compounds were tested on A673 cells (assay: Dose-response cell proliferation assay in A673 cells (crystal violet)). Conditions: Homo sapiens, A673 cells, 10,000 cells per well, 72 h treatment.
Format: cell-based
Description: Small molecule splicing modulators were tested in a dose-response assay using A673 cells. A673 cells were first plated in 96-well plastic tissue culture plates (10,000 cells per well). The cells were treated with vehicle alone (DMSO), or increasing concentrations of SMSM compounds for 72 h. Following treatment, cell proliferation was determined using a crystal violet assay. The relative cell proliferation at each concentration was determined.
In the case of `CNC(=O)/C=C/c1ccc(-c2ccc(S[C@@H]3C[C@H]4CC[C@@H](C3)N4)nn2)c(O)c1` [SMSM 23, (E)-3-(4-(6-(((1R,3s,5S)-8-azabicyclo[3.2.1]octan-3-yl)thio)pyridazin-3-yl)-3-hydroxyphenyl)-N-methylacrylamide], the IC50 is reported as 201 nM. Compound `CN(C)C(=O)/C=C/c1ccc(-c2ccc(N(C)[C@@H]3C[C@H]4CCC[C@@H](C3)N4)nn2)c(O)c1` [SMSM 7, (E)-3-(4-(6-(((1R,3s,5S)-9-azabicyclo[3.3.1]nonan-3-yl)(methyl)amino)pyridazin-3-yl)-3-hydroxyphenyl)-N,N-dimethylacrylamide] has an IC50 of 3.7 nM. `CNC(=O)/C=C/c1ccc(-c2ccc(N(C)[C@H]3C[C@]4(C)CC[C@](C)(C3)N4)nn2)c(O)c1` [SMSM 10, (E)-3-(4-(6-(((1R,3s,5S)-1,5-dimethyl-8-azabicyclo[3.2.1]octan-3-yl)(methyl)amino)pyridazin-3-yl)-3-hydroxyphenyl)-N-methylacrylamide] gave an IC50 of 1580 nM. With `CNC(=O)/C=C/c1cc(O)c(-c2ccc(N(C)[C@H]3C[C@]4(C)CC[C@](C)(C3)N4)nn2)cc1F` [SMSM 9] the IC50 was 1950 nM. In the case of `CNC(=O)/C=C/c1ccc(-c2ccc(N(C)[C@H]3C[C@]4(C)CCC[C@](C)(C3)N4)nn2)c(O)c1` [SMSM 14, (E)-3-(4-(6-(((1R,3s,5S)-1,5-dimethyl-9-azabicyclo[3.3.1]nonan-3-yl)(methyl)amino)pyridazin-3-yl)-3-hydroxyphenyl)-N-methylacrylamide], the IC50 is reported as 1.6 nM. In the case of `CNC(=O)/C=C/c1cc(O)c(-c2ccc(N3CCC(N)CC3)nn2)cc1F` [SMSM 17, (E)-3-(4-(6-(4-aminopiperidin-1-yl)pyridazin-3-yl)-2-fluoro-5-hydroxyphenyl)-N-methylacrylamide], the IC50 is reported as 0.3 nM. With `CN(c1ccc(-c2ccc(/C=C/c3nnn[nH]3)cc2O)nn1)[C@H]1C[C@]2(C)CC[C@](C)(C1)N2` [SMSM 12, 5-((E)-2-(1H-tetrazol-5-yl)vinyl)-2-(6-(((1R,3s,5S)-1,5-dimethyl-8-azabicyclo[3.2.1]octan-3-yl)(methyl)amino)pyridazin-3-yl)phenol] the IC50 was > 1000 nM. With `CNC(=O)/C=C/c1cc(O)c(-c2ccc(N(C3CC3)[C@H]3C[C@]4(C)CC[C@](C)(C3)N4)nn2)cc1F` [SMSM 11, (E)-3-(4-(6-(cyclopropyl((1R,3s,5 S)-1,5-dimethyl-8-azabicyclo[3.2.1]octan-3-yl)amino)pyridazin-3-yl)-2-fluoro-5-hydroxyphenyl)-N-methylacrylamide] the IC50 was 1390 nM. `CN(C(=O)/C=C/c1ccc(-c2ccc(N(C)[C@@H]3C[C@H]4CCC[C@@H](C3)N4)nn2)c(O)c1)C1CC1` [SMSM 5, (E)-3-(4-(6-(((1R,3s,5S)-9-azabicyclo[3.3.1]nonan-3-yl)(methyl)amino)pyridazin-3-yl)-3-hydroxyphenyl)-N-cyclopropyl-N-methylacrylamide] gave an IC50 of 554 nM. For `CNC(=O)/C=C/c1ccc(-c2ccc(O[C@@H]3C[C@H]4CC[C@@H](C3)N4)nn2)c(O)c1` [SMSM 4, (E)-3-(4-(6-(((1R,3s,5S)-8-azabicyclo[3.2.1]octan-3-yl)oxy)pyridazin-3-yl)-3-hydroxyphenyl)-N-methylacrylamide], the IC50 was 7 nM. `CNC(=O)/C=C/c1cc(O)c(-c2ccc(N(C)[C@@H]3C[C@H]4CCC[C@@H](C3)N4)nn2)cc1F` [SMSM 8, (E)-3-(4-(6-(((1R,3s,5S)-9-azabicyclo[3.3.1]nonan-3-yl)(methyl)amino)pyridazin-3-yl)-2-fluoro-5-hydroxyphenyl)-N-methylacrylamide] was tested, and the IC50 was 20 nM. `CNC(=O)/C=C/c1ccc(-c2ccc(N3CCC(N)CC3)nn2)c(O)c1` [SMSM 18, (E)-3-(4-(6-(4-aminopiperidin-1-yl)pyridazin-3-yl)-3-hydroxyphenyl)-N-methylacrylamide] was tested, and the IC50 was > 1000 nM. `CNC(=O)/C=C/c1ccc(-c2ccc(N(C)C3CC(C)(C)NC(C)(C)C3)nn2)c(O)c1` [SMSM 16, (E)-3-(3-hydroxy-4-(6-(methyl(2,2,6,6-tetramethylpiperidin-4-yl)amino)pyridazin-3-yl)phenyl)-N-methylacrylamide] gave an IC50 of 0.2 nM. `CNC(=O)/C=C/c1ccc(-c2ccc(N(C)[C@@H]3C[C@H]4CC[C@@H](C3)N4)nn2)c(O)c1` [SMSM 3, (E)-3-(4-(6-(((1R,3s,5S)-8-azabicyclo[3.2.1]octan-3-yl)(methyl)amino)pyridazin-3-yl)-3-hydroxyphenyl)-N-methylacrylamide] showed an IC50 of 8.3 nM. For `CNC(=O)/C=C/c1cc(O)c(-c2ccc(N(C3CC3)[C@H]3C[C@]4(C)CCC[C@](C)(C3)N4)nn2)cc1F` [SMSM 13, (E)-3-(4-(6-(cyclopropyl((lR,3s,5 S)-1,5-dimethyl-9-azabicyclo[3.3.1]nonan-3-yl)amino)pyridazin-3-yl)-2-fluoro-5-hydroxyphenyl)-N-methylacrylamide], the IC50 was > 1000 nM. Compound `CNC(=O)/C=C/c1ccc(-c2ccc(N3C[C@H]4CNC[C@H]4C3)nn2)c(O)c1` [SMSM 2, (E)-3-(4-(6-((3aR,6aS)-hexahydropyrrolo[3,4-c]pyrrol-2(1H)-yl)pyridazin-3-yl)-3-hydroxyphenyl)-N-methylacrylamide] has an IC50 of 9 nM. Work on `CNC(=O)/C=C/c1ccc(-c2ccc(N(C)[C@@H]3C[C@H]4CCC[C@@H](C3)N4)nn2)c(O)c1` [SMSM 6, (E)-3-(4-(6-(((1R,3s,5S)-9-azabicyclo[3.3.1]nonan-3-yl)(methyl)amino)pyridazin-3-yl)-3-hydroxyphenyl)-N-methylacrylamide] yielded an IC50 of 3120 nM. In the case of `CNC(=O)/C=C/c1ccc(-c2ccc(O[C@H]3C[C@H]4C[C@@H]3CN4)nn2)c(O)c1` [SMSM 21], the IC50 is reported as 369 nM. Compound `CNC(=O)/C=C/c1cc(O)c(-c2ccc(N(C)[C@H]3C[C@]4(C)CCC[C@](C)(C3)N4)nn2)cc1F` [SMSM 15, (E)-3-(4-(6-(((1R,3s,5S)-1,5-dimethyl-9-azabicyclo[3.3.1]nonan-3-yl)(methyl)amino)pyridazin-3-yl)-2-fluoro-5-hydroxyphenyl)-N-methylacrylamide] has an IC50 of 0.7 nM. `CNC(=O)/C=C/c1ccc(-c2ccc(O[C@@H]3C[C@@H]4C[C@H]3CN4)nn2)c(O)c1` [SMSM 22, (E)-3-(4-(6-(((1S,4S,5R)-2-azabicyclo[2.2.1]heptan-5-yl)oxy)pyridazin-3-yl)-3-hydroxyphenyl)-N-methylacrylamide] was tested, and the IC50 was 330 nM. `CNC(=O)/C=C/c1cc(O)c(-c2ccc(N3C[C@H]4CNC[C@H]4C3)nn2)cc1F` [SMSM 1, (E)-3-(2-fluoro-4-(6-((3aR,6aS)-hexahydropyrrolo[3,4-c]pyrrol-2(1H)-yl)pyridazin-3-yl)-5-hydroxyphenyl)-N-methylacrylamide] gave an IC50 of 91 nM. For `CN(C)C(=O)/C=C/c1ccc(-c2ccc(O[C@@H]3C[C@H]4CCC[C@@H](C3)N4)nn2)c(O)c1` [SMSM 19], the IC50 was > 1000 nM. `CNC(=O)/C=C/c1ccc(-c2ccc(O[C@@H]3C[C@H]4CCC[C@@H](C3)N4)nn2)c(O)c1` [SMSM 20, (E)-3-(4-(6-(((1R,3s,5S)-9-azabicyclo[3.3.1]nonan-3-yl)ypoxy)pyridazin-3-yl)-3-hydroxyphenyl)-N-methylacrylamide] gave an IC50 of 793 nM.
